Measurements: patent publication US5399565A, “Pyrazolidinone CCK and gastrin antagonists and pharmaceutical formulations therof” (priority 1993, dated 1995)
pIC50: −log10 of the molar value.

Assays:
brain CCK receptor = target: T1, brain CCK receptor (Mus musculus, UniProt P56481); assay: CCK receptor binding, mouse brain membranes (125I-CCK-8 sulfate); conditions: for inhibition at 10 µM / inhibition at 1 µM: read-out: Brain Percent Inhibition; for pIC50: mouse brain membranes, read-out: Brain IC50
T1 construct: from tissue; host or cells: forebrain membranes of male CF-1 mice
T1 sequence (P56481 1-453): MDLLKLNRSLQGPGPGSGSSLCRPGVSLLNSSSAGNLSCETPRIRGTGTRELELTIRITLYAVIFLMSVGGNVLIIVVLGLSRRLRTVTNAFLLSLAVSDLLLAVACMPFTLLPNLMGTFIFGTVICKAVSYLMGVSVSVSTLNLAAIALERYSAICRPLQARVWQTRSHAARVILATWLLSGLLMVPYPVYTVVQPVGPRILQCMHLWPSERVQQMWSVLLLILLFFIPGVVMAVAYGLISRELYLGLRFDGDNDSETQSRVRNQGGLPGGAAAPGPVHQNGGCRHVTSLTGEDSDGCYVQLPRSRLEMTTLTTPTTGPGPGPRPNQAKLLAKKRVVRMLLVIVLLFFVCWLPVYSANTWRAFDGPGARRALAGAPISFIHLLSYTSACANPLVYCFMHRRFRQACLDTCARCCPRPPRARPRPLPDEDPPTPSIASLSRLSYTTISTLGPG
Procedure: Brain CCK receptor binding was performed using mouse brain membranes according to the method of Chang and Lotti (Proc. Natl. Acad. Sci. 83: 4923-4926, 1986). Male CF-1 mice, 23-25 g were sacrificed by cervical dislocation, the forebrain removed and placed in ice cold 50 mM Tris buffer, pH 7.4. The tissue was homogenized in 100 volumes of the Tris buffer with a Brinkman Polytron or Tekmar Tissumizer and then centrifuged at 40,000 g for 10 min. Pellets were resuspended in Tris buffer, centrifuged as above and then resuspended in 100 volumes of assay buffer, pH 6.5 (20 mM N-2-hydroxyethyl-piperazine-N'-2-ethane sulfonic acid (HEPES), 1 mM ethylene glycol his (2-aminoethyl ether-N,N,N',N'-tetraacetic acid) (EGTA), 5 mM MgCl2, 130 mM NaCl, and 0.25 mg/ml bacitracin). The binding assay consisted of 50 μL of compound (or buffer for total binding), 50 μL of ^125 I-CCK-8 sulfate (20 pM) (Amersham IM- 159), 200 μL of assay buffer and 200 μL of homogenate (80-120 μg protein). The samples were incubated at room temperature (25°) for 2 hours, and they were then filtered through GF/B glass fiber filters (soaked in wash buffer for 2 hours before use) using a 48 well Brandel cell harvester designed for receptor binding. The filters were washed twice with 3 ml of 50 mM Tris buffer, pH 7.4, containing 0.01% BSA and then counted for radioactivity in plastic tubes with a Micromedic 10/600 automatic gamma counter.
Compounds were dissolved in dimethyl sulfoxide (DMSO) at a concentration of 10 mM and then further diluted with assay buffer. The concentration of DMSO in the incubation was 0.1% or less and had no effect on the assay at that level. IC-50 values of displacement curves were determined using 7 concentrations of compound and were calculated using the ALLFIT computer program of DeLean, Munson and Rodbard (Am. J. Physiol. 235: E97-E102, 1978). Non-specific binding was determined as the displacement of the radioligand by 100 nM CCK-8 sulfate.

[1] = target: T2, peripheral type CCK receptors in rat pancreas (Rattus norvegicus, UniProt P30551); assay: Binding to peripheral type CCK receptors in rat pancreas (3H-L-364,718); conditions: read-out: Pancreas Percent Inhibition
T2 construct: Pancreas was obtained from male Sprague-Dawley rats; from tissue; host or cells: pancreas membranes of male Sprague-Dawley rats
T2 sequence (P30551 1-444): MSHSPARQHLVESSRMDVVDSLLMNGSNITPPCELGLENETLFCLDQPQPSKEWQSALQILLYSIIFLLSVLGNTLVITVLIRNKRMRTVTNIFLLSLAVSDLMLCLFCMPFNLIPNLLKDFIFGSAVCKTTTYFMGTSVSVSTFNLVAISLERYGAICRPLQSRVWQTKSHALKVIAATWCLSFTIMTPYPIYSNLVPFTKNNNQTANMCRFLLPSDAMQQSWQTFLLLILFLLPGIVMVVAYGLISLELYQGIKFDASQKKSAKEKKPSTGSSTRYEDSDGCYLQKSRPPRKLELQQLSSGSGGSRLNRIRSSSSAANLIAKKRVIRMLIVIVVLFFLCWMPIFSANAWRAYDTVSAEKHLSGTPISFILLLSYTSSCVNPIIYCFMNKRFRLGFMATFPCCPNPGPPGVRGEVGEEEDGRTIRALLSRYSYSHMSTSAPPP
Procedure: Binding to peripheral type CCK receptors in rat pancreas was done according to the method of Chang et al. (Mol. Pharmacol. 30: 212-217, 1986) using ^3 H-L364, 718. Pancreas was obtained from male Sprague-Dawley rats, 150-200 g, after decapitation, and dissected free from adipose and connective tissue. The tissue was homogenized in 30 volumes of 50 mM Tris buffer, pH 7.4 and centrifuged at 40,000 g for 10 min. The tissue pellet was washed by resuspension and centrifugation as described above. The final pellet was suspended in 500 volumes of assay buffer (50 mM Tris buffer, pH 7.4, 5 mM MgCl2, 0.14 mg/ml bacitracin, and 5 mM dithiothreitol) to give a protein concentration of 30-60 μg/200 μl . Reagent volumes for the assay were the same as those used for CCK binding to brain membranes. Tritium labeled L-364,718 (Dupont NEN, NET-971) was used as the ligand at a concentration of 0.4-0.6 nM. The samples were incubated 1 hour at room temperature and then filtered as described for the CCK-brain receptor. Scintillation cocktail was added to the filters which were counted for radioactivity using a Micromedic Taurus automatic liquid scintillation counter.
Compound samples were prepared and IC-50 values were determined as described for the CCK-brain experiments. Non-specific binding was that amount left bound to the filters after adding 100 nM L-364,718.

O=C1NN(C(=S)Nc2cccc(C(F)(F)F)c2)[C@H](c2ccccc2)[C@H]1c1ccccc1 (relative stereo) [Example 61]
inhibition at 10 µM (brain CCK receptor): 56% | inhibition at 10 µM [1]: 78%

O=C1NN(C(=O)Nc2ccc(Br)cc2)C(Cc2ccccc2)C1c1ccccc1 (centres unmarked) [Example 72]
inhibition at 10 µM (brain CCK receptor): 88% | inhibition at 10 µM [1]: 22%

CCCCC1C(c2ccccc2)C(=O)NN1C(=O)Nc1ccc(C(F)(F)F)cc1 (centres unmarked) [Example 71]
pIC50 (brain CCK receptor): 5.92 | inhibition at 10 µM [1]: 39%

O=C1NN(C(=S)Nc2c(F)c(F)c(F)c(F)c2F)[C@H](c2ccccc2)[C@H]1c1ccccc1 (relative stereo) [Example 65]
inhibition at 10 µM (brain CCK receptor): 50% | inhibition at 10 µM [1]: 37%

O=C1NN(C(=O)Nc2ccc([N+](=O)[O-])cc2)[C@@H](c2ccccc2)[C@@H]1c1ccccc1 (relative stereo) [Example 24]
pIC50 (brain CCK receptor): 6.82 | inhibition at 10 µM [1]: 45%

C[C@@H](NC(=O)N1NC(=O)C(c2ccccc2)C1c1ccccc1)c1ccccc1 (some centres unmarked) [Example 102]
pIC50 (brain CCK receptor): 5.33 | inhibition at 10 µM [1]: 11%

O=C1NN(c2nc3ccc(Br)cc3s2)[C@@H](c2ccccc2)[C@@H]1c1ccccc1 (relative stereo) [Example 85]
inhibition at 10 µM (brain CCK receptor): 78% | inhibition at 10 µM [1]: 19%

O=C1NN(C(=O)Nc2cc(C(F)(F)F)ccc2Cl)[C@H](c2ccccc2)[C@H]1c1ccccc1 (relative stereo) [Example 57]
pIC50 (brain CCK receptor): 6.00 | inhibition at 10 µM [1]: 45%

O=C1NN(C(=S)Nc2cccc(Cl)c2Cl)[C@H](c2ccccc2)[C@H]1c1ccccc1 (relative stereo) [Example 64]
pIC50 (brain CCK receptor): 5.28 | inhibition at 1 µM ([1]; at 1 μM): 34%

O=C1NN(C(=O)Nc2ccc(I)cc2)[C@@H](c2ccccc2)[C@@H]1c1ccccc1 (relative stereo) [Example 21]
pIC50 (brain CCK receptor): 7.24 | inhibition at 10 µM [1]: 77%

O=C1NN(C(=O)Nc2ccc(-c3ccccc3)cc2)[C@@H](c2ccccc2)[C@@H]1c1ccccc1 (relative stereo) [Example 32]
inhibition at 1 µM (brain CCK receptor): 42% | inhibition at 10 µM [1]: 69%

COc1ccc(NC(=O)N2NC(=O)[C@@H](c3ccccc3)[C@@H]2c2ccccc2)cc1 (relative stereo) [Example 33]
pIC50 (brain CCK receptor): 6.47 | inhibition at 10 µM [1]: 20%

O=C1NN(C(=O)Nc2cccc(OCc3ccccc3)c2)[C@H](c2ccccc2)[C@H]1c1ccccc1 (relative stereo) [Example 44]
pIC50 (brain CCK receptor): 6.59 | inhibition at 10 µM [1]: 67%

O=C1NN(C(=O)Cc2ccc(C(F)(F)F)cc2)[C@H](c2ccccc2)[C@H]1c1ccccc1 (relative stereo) [Example 77]
inhibition at 10 µM (brain CCK receptor): 56% | inhibition at 10 µM [1]: 20%

O=C1NN(C(=O)Nc2ccc(C3CCCCC3)cc2)[C@@H](c2ccccc2)[C@@H]1c1ccccc1 (relative stereo) [Example 31]
inhibition at 1 µM (brain CCK receptor): 54% | inhibition at 10 µM [1]: 71%

O=C1NN(C(=O)NC2CCc3ccccc3C2)[C@@H](c2ccccc2)[C@@H]1c1ccccc1 (relative stereo) [Example 4, 1-[(2-[1,2,3,4-Tetrahydronaphthyl])aminocarbonyl]-4,5-diphenyl-3-pyrazolidinone]
pIC50 (brain CCK receptor): 6.41 | inhibition at 10 µM [1]: 78%

COc1cccc(NC(=O)N2NC(=O)[C@H](c3ccccc3)[C@H]2c2ccccc2)c1 (relative stereo) [Example 42]
pIC50 (brain CCK receptor): 6.11 | inhibition at 10 µM [1]: 37%

O=C1NN(c2nc3ccccc3s2)[C@@H](c2ccccc2)[C@@H]1c1ccccc1 (relative stereo) [Example 84]
inhibition at 10 µM (brain CCK receptor): 70% | inhibition at 10 µM [1]: 26%

O=C1NN(C(=O)N2CCc3ccccc3C2)[C@@H](c2ccccc2)[C@@H]1c1ccccc1 (relative stereo) [Example 109]
pIC50 (brain CCK receptor): 5.22 | inhibition at 10 µM [1]: 11%

O=C1NN(C(=O)Nc2ccc(Oc3ccccc3)cc2)[C@@H](c2ccccc2)[C@@H]1c1ccccc1 (relative stereo) [Example 37]
inhibition at 1 µM (brain CCK receptor): 82% | inhibition at 10 µM [1]: 75%

O=C1NN(C(=S)Nc2ccccc2)[C@H](c2ccccc2)[C@H]1c1ccccc1 (relative stereo) [Example 60]
inhibition at 10 µM (brain CCK receptor): 34% | inhibition at 10 µM [1]: 37%

COc1ccc(C2C(=O)NN(C(=O)Nc3ccc(Br)cc3)C2c2ccccc2)cc1 (centres unmarked) [Example 128]
pIC50 (brain CCK receptor): 6.31 | inhibition at 10 µM [1]: 39%

CC(C)Oc1ccc(NC(=O)N2NC(=O)[C@@H](c3ccccc3)[C@@H]2c2ccccc2)cc1 (relative stereo) [Example 35]
pIC50 (brain CCK receptor): 6.41 | inhibition at 10 µM [1]: 48%

O=C1NN(C(=O)Nc2ccc3c(c2)OCO3)[C@H](c2ccccc2)[C@H]1c1ccccc1 (relative stereo) [Example 52]
inhibition at 1 µM (brain CCK receptor): 60% | inhibition at 10 µM [1]: 21%

CCCc1ccc(NC(=O)N2NC(=O)[C@@H](c3ccccc3)[C@@H]2c2ccccc2)cc1 (relative stereo) [Example 27]
pIC50 (brain CCK receptor): 6.64 | inhibition at 10 µM [1]: 60%

C[C@@H](NC(=O)N1NC(=O)C(c2ccccc2)C1c1ccccc1)c1cccc2ccccc12 (some centres unmarked) [Example 104]
pIC50 (brain CCK receptor): 6.05 | inhibition at 10 µM [1]: 47%

O=C1NN(C(=O)Nc2cccc([N+](=O)[O-])c2)[C@H](c2ccccc2)[C@H]1c1ccccc1 (relative stereo) [Example 40]
pIC50 (brain CCK receptor): 6.12 | inhibition at 10 µM [1]: 38%

O=C1NN(C(=O)NCc2ccc(Cl)cc2)[C@@H](c2ccccc2)[C@@H]1c1ccccc1 (relative stereo) [Example 100]
pIC50 (brain CCK receptor): 5.66 | inhibition at 10 µM [1]: 78%

O=C(O)COC1=NN(C(=O)Nc2ccc(Br)cc2)[C@@H](c2ccccc2)[C@@H]1c1ccccc1 (relative stereo) [Example 12 (O--), 1-[(4-bromophenyl)aminocarbonyl]-3-carboxymethoxy-4,5-diphenyl-2-pyrazoline]
pIC50 (brain CCK receptor): 6.47 | inhibition at 10 µM [1]: 64%

O=C1NN(C(=O)NCCc2ccccc2)[C@@H](c2ccccc2)[C@@H]1c1ccccc1 (relative stereo) [Example 105]
pIC50 (brain CCK receptor): 6.31 | inhibition at 10 µM [1]: 43%

O=C1NN(C(=O)Nc2cc(C(F)(F)F)cc(C(F)(F)F)c2)[C@H](c2ccccc2)[C@H]1c1ccccc1 (relative stereo) [Example 58]
inhibition at 1 µM (brain CCK receptor): 10% | inhibition at 10 µM [1]: 85%
